Measured values: patent US20050038248A1, “Chemotherapeutic agents” (priority 2001, published 2005)
Like-named read-outs stand apart in the source and are kept apart here.

Columns and labels:
Assay type in all cases: cell-based
rat aorta ring = test: Rat aorta assay for angiogenesis inhibition (rat aorta ring model); details: for inhibition at 0.5 µg/mL: 0.5 μg/mL; for inhibition at 1 µg/mL: 1 μg/mL
From the text: Rat Aorta Assay for Angiogenesis Inhibition
The rat aorta ring model based on that described by Nicosia and Ottinetti (Nicosia, R. F. et al. Lab. Investigation 63: 115, 1990; Nicosia, R. F. et al. Cell. Dev. Biol. 26: 119-128, 1990), was used throughout the assay.
The agarose was made up as a 1.5% solution in distilled water and brought to the boil to form a clear solution which was poured into sterile 9 cm petri dishes, covered and allowed to cool and set.
Maintaining sterile conditions, agarose rings were obtained by punching two concentric circles, with sterile10 and 17 mm hole punches, respectively, in the agarose gel. Using sterile forceps, the rings are removed and placed, three per well in each of the 6-well plates.
The MEM was prepared according to manufacturer's directions, but before filtering through a 0.22 μm filter, HEPES and L-glutamine were added to give 10 mM and 1 mM concentrations respectively with pH adjusted to 7.4. Eight hundred mL of this medium were filtered through a 0.2 μm filter along with the antibiotics (50 mg/L Gentamycin sulphate and 2.5 mg/L Amphotericin B) and 200 mL of FCS (to give 20%) to yield one litre of medium.
The aorta was removed from a 3-4 month male Copenhagen rat and transferred to a dissecting dish where it was cleaned and carefully stripped of the fibroadipose tissue surrounding it. Rings of 0.5 mm were cut, using a fresh scalpel blade, from the length of the aorta. These were kept under sterile conditions in a biohazard hood where they were washed 12 times with MEM.
Before transferring the aortic rings to the culture plate, the bottom of each agarose well was coated with 150 μL of clotting fibrinogen. Fibrinogen was made up as a 3 mg/mL solution in MEM, while thrombin made up in distilled water to give a concentration of 50 U/mL. The fibrinogen (1 mL) and the thrombin (20 μL) reacted within 30 sec to form a solid gel.
The aortic rings were transferred to the 6-well plates, with one ring placed in the center of each agarose well. Fresh fibrinogen/thrombin was made up as before and 150 μL was used to seal in each aortic ring. The gels were rested for approximately 2 hours before the medium was added.
[…] The compounds were made up as 6 mg/mL solution in water or DMSO. The test solutions were added to each well with the medium.
Six mL of MEM were carefully added to each of three wells to become the controls. MEM, along with the test compounds were added to the remaining wells and all were covered and transferred to the CO2 Incubator at 37° C., where they were kept for the next 14 days.
However, by the fifth day, there were noticeable changes in the tissue. Micro-vessels were seen and scored. We have based the scoring method on that used by Liekens et al. (Liekens, S., et al. Oncol. Res. 9: 173-181, 1997) in which 0 meant no vessels and 10 meant maximum vessels; the score is then converted into a percentage inhibition of vessel growth.

[1] = tested on: HeLa cervical adenocarcinoma (epithelial) cells; test: Cytotoxicity assay (WST-1); details: 100 μM test compound, 72 hours
Procedure: (§1) HeLa cervical adenocarcinoma (epithelial) cells were cultured in the presence of 100 μM of test compound for 72 hours and cell viability was measured using the WST-1 tetrazolium salt (cleaved to formazan by mitochondrial respiratory chain enzymes, which are only active in viable cells). The absorbance of the dye solution was measured at 450 nm. Controls included cells alone, 0.05% NP-40 plus cells (100% cytotoxicity control) and each of the compound vehicles alone, DMSO or water at the same final concentration in medium as the compound in test wells. % Cytotoxicity was calculated as follows: % cytotoxicity=100×(1-ODtest compound/ODcells alone).

HUVEC [2] = test: Growth inhibition assay (crystal violet); details: HUVEC proliferation, 72 h
Procedure: HUVEC (1.5×10^3) are plated in a 96-well plate in 100 μL of EBM-2 (Clonetic # CC3162). After 24 h (day 0), the test compound (100 μL) is added to each well at twice the desired concentration (5-7 concentration levels) in EBM-2 medium. On day 0, one plate is stained with 0.5% crystal violet in 20% methanol for 10 minutes, rinsed with water, and air-dried. The remaining plates are incubated for 72 h at 37° C. After 72 h, plates are stained with 0.5% crystal violet in 20% methanol, rinsed with water and air-dried. The stain is eluted with 1:1 solution of ethanol:0.1M sodium citrate (including day 0 plate), and absorbance is measured at 540 nm with an ELISA reader (Dynatech Laboratories). Day 0 absorbance is subtracted from the 72 h plates and data is plotted as percentage of control proliferation (vehicle treated cells). IC50 (drug concentration causing 50% inhibition) is calculated from the plotted data.

[3] = Cytotoxicity assay (WST-1); details: human, HeLa cervical adenocarcinoma (epithelial) cells, 100 μM test compound
Procedure: as §1

HUVEC [4] = test: Cord formation assay on matrigel; details: Homo sapiens, 24 h incubation
Procedure: Matrigel (60 μL of 10 mg/mL) is placed in each well of an ice-cold 96-well plate. The plate is allowed to sit at room temperature for 15 minutes then incubated at 37° C. for 30 minutes to permit the matrigel to polymerize. In the mean time, HUVEC are prepared in EGM-2 (Clonetic # CC3162) at a concentration of 2×10^5 cells/mL. The test compound is prepared at twice the desired concentration (5 concentration levels) in the same medium. Cells (50 μL) and 2×drug […] is mixed and 200 μL of this suspension are placed in duplicate on the polymerized matrigel. After 24 h incubation, triplicate pictures are taken for each concentration using a Bioquant Image Analysis system. Drug effect (IC50) is assessed compared to untreated controls by measuring the length of cords formed and number of junctions.

HUVEC [5] = test: Cell migration assay (Boyden chamber); details: Homo sapiens, 5 h incubation
Procedure: Migration is assessed using the 48-well Boyden chamber and 8 μm pore size collagen-coated (10 μg/mL rat tail collagen; Collaborative Laboratories) polycarbonate filters (Osmonics, Inc.). The bottom chamber wells receive 27-29 μL of DMEM medium alone (baseline) or medium containing chemo-attractant (bFGF, VEGF or Swiss 3T3 cell conditioned medium). The top chambers receive 45 μL of HUVEC cell suspension […] prepared in DMEM+1% BSA with or without test compound. After 5 h incubation at 37° C., the membrane is rinsed in PBS, fixed and stained in Diff-Quick solutions. The filter is placed on a glass slide with the migrated cells facing down and cells on top are removed using a Kimwipe. The testing is performed in 4-6 replicates and five fields are counted from each well. Negative unstimulated control values are subtracted from stimulated control and drug treated values and data is plotted as mean migrated cell±S.D. IC50 is calculated from the plotted data.

[6] = Rattus norvegicus, 120 h, 4 μg/mL, day 5, read-out: Growth Inhibition % (Day)
[7] = Rattus norvegicus, 120 h, day 5, read-out: Growth Inhibition % (Day)
[8] = Rattus norvegicus, 120 h, 10 μg/mL, day 5, read-out: Growth Inhibition % (Day)
[9] = Rattus norvegicus, 288 h, day 12, read-out: Growth Inhibition % (Day)
[10] = Rattus norvegicus, 288 h, 4 μg/mL, day 12, read-out: Growth Inhibition % (Day)
[11] = Rattus norvegicus, 288 h, 10 μg/mL, day 12, read-out: Growth Inhibition % (Day)
[12] = Rattus norvegicus, 168 h, 10 μg/mL, day 7, read-out: Growth Inhibition % (Day)
[13] = Rattus norvegicus, 168 h, day 7, read-out: Growth Inhibition % (Day)
[14] = Rattus norvegicus, 168 h, 4 μg/mL, day 7, read-out: Growth Inhibition % (Day)

CC(C)c1cccc(C(C)C)c1NC(=O)c1ccccc1S(=O)(=O)Nc1c(C(C)C)cccc1C(C)C [Example 1, N-(2,6,-Diisopropylphenyl)-2-(2,6-diisopropylphenylsulfamoyl)-benzamide]
Growth Inhibition % (Day) (rat aorta ring; 4 μg/mL, day 7): 100 (7) %
Growth Inhibition % (Day) (rat aorta ring; 4 μg/mL, day 14): 100 (14) %
Growth Inhibition % (Day) (rat aorta ring; 20 μg/mL, day 7): 98 (7) %
Growth Inhibition % (Day) (rat aorta ring; 20 μg/mL, day 14): 98 (14) %
Growth Inhibition % (Day) (rat aorta ring; 50 μg/mL, day 7): 100 (7) %
Growth Inhibition % (Day) (rat aorta ring; 50 μg/mL, day 14): 100 (14) %
% Cytotoxicity [1]: 94%
IC50 (HUVEC [2]): 2400 ± 500 nM

O=C(Nc1ccccc1)c1ccccc1S(=O)(=O)Nc1ccccc1 [Example 2, N-Phenyl-2-phenylsulfamoylbenzamide]
inhibition at 4 µg/mL (rat aorta ring; [6]): 50%
inhibition at 20 µg/mL (rat aorta ring; Rattus norvegicus, 120 h, 20 μg/mL, day 5, read-out: Growth Inhibition % (Day)): 90%
inhibition at 50 µg/mL (rat aorta ring; Rattus norvegicus, 120 h, 50 μg/mL, day 5, read-out: Growth Inhibition % (Day)): 70%

COc1ccc(NS(=O)(=O)c2ccccc2NC(=O)c2ccncc2)cc1 [Example 3, N-[2-(4-Methoxyphenylsulfamoyl)-phenyl]-isonicotinamide]
inhibition at 0.5 µg/mL (rat aorta ring; [7]): 100%
inhibition at 1 µg/mL (rat aorta ring; [7]): 100%
inhibition at 4 µg/mL (rat aorta ring; [6]): 100%
inhibition at 10 µg/mL (rat aorta ring; [8]): 100%
inhibition at 0.5 µg/mL (rat aorta ring; [9]): 60%
inhibition at 1 µg/mL (rat aorta ring; [9]): 100%
inhibition at 4 µg/mL (rat aorta ring; [10]): 100%
inhibition at 10 µg/mL (rat aorta ring; [11]): 100%
cytotoxicity at 72 hours, 100 µM [3]: 92%
IC50 (HUVEC [2]; Homo sapiens): 290 ± 220 nM
IC50 (HUVEC [4]): 480 ± 270 nM
IC50 (HUVEC [5]): 680 ± 170 nM

COc1ccc(NS(=O)(=O)c2ccccc2NC(=O)c2ccc([N+](=O)[O-])cc2)cc1 [Example 4, N-[2-(4-Methoxyphenylsulfamoyl)-phenyl]-4-nitrobenzamide]
cytotoxicity at 72 hours, 100 µM [3]: 56%

COc1ccc(NS(=O)(=O)c2ccccc2NC(=O)c2ccc(F)cc2)cc1 [Example 5, N-[2-(4-Methoxyphenylsulfamoyl)-phenyl]-4-fluorobenzamide]
inhibition at 10 µg/mL (rat aorta ring; [8]): 80%
inhibition at 10 µg/mL (rat aorta ring; [11]): 70%
cytotoxicity at 72 hours, 100 µM [3]: 91%
IC50 (HUVEC [2]; Homo sapiens): 7100 ± 2700 nM
IC50 (HUVEC [4]): 36100 ± 9400 nM

CC(C)c1cccc(C(C)C)c1NC(=O)c1ccccc1C(=O)Nc1c(C(C)C)cccc1C(C)C [Example 6, N,N′-Bis-(2,6-diisopropylphenyl)-phthalamide]
inhibition at 10 µg/mL (rat aorta ring; [12]): 10%

COc1ccc(S(=O)(=O)Nc2ccccc2C(=O)Nc2ccncc2)cc1 [Example 8, 2-(4-Methoxybenzenesulfonylamino)-N-pyridin-4-yl-benzamide]
inhibition at 10 µg/mL (rat aorta ring; [8]): 80%
inhibition at 10 µg/mL (rat aorta ring; [11]): 30%
cytotoxicity at 72 hours, 100 µM [3]: 84%

COc1ccc(NS(=O)(=O)c2ccccc2S(=O)(=O)Nc2ccc(OC)cc2)cc1 [Example 12, Benzene-1,2-disulfonic acid bis-[(4-methoxyphenyl)-amide]]
inhibition at 10 µg/mL (rat aorta ring; [11]): 20%
IC50 (HUVEC [2]; Homo sapiens): > 75000 nM
IC50 (HUVEC [4]): > 50000 nM
IC50 (HUVEC [5]): 2300 nM

COc1ccc(NS(=O)(=O)c2ccccc2NS(=O)(=O)c2cccs2)cc1 [Example 13, Thiophene-2-sulfonic acid [2-(4-methoxyphenylsulfamoyl)-phenyl]-amide]
inhibition at 0.5 µg/mL (rat aorta ring; [13]): 90%
inhibition at 1 µg/mL (rat aorta ring; [13]): 100%
inhibition at 4 µg/mL (rat aorta ring; [14]): 100%
inhibition at 10 µg/mL (rat aorta ring; [12]): 100%
inhibition at 0.5 µg/mL (rat aorta ring; [9]): 90%
inhibition at 1 µg/mL (rat aorta ring; [9]): 100%
inhibition at 4 µg/mL (rat aorta ring; [10]): 100%
inhibition at 10 µg/mL (rat aorta ring; [11]): 100%
IC50 (HUVEC [2]; Homo sapiens): 280 ± 220 nM
IC50 (HUVEC [4]): 410 ± 30 nM
IC50 (HUVEC [5]): 620 ± 250 nM

COc1ccc(N(Cc2ccccc2)S(=O)(=O)c2ccccc2C(=O)Nc2ccncc2)cc1 [Example 15, 2-[Benzyl-(4-methoxyphenyl)-sulfamoyl]-N-pyridin-4-yl-benzamide]
inhibition at 4 µg/mL (rat aorta ring; [14]): 90%

COc1ccc(NS(=O)(=O)c2ccccc2C(=O)Nc2ccncc2)cc1 [Example 16]
Growth Inhibition % (Day) (rat aorta ring; 10 μg/mL, day 7): 70 (7) %
Growth Inhibition % (Day) (rat aorta ring; 10 μg/mL, day 12): 10 (12) %
